Data reported in US4507313A, “Oxadiazolyl-imidazo-[1,4]benzodiazepines and their use in treatment of diseases of the central nervous system” (A/S Ferrosan, priority 1982, dated 1985).

Assays:
[1] = tested on: benzodiazepine receptors; test: Inhibition of 3H-flunitrazepam binding to benzodiazepine receptors in living brain, in vivo; settings: mice, usually subcutaneous; 3H-flunitrazepam i.v. 15 min later, killed after further 20 min; 50% reduction of specific binding
Protocol: The ED50 value represents the dose (mg/kg) of a test substance which causes the specific binding of flunitrazepam to benzodiazepine receptors in a living brain to be reduced to 50% of the control value. Such an in vivo test is carried out as follows:
Groups of mice are injected with the test substance at different doses and usually subcutaneously. 15 minutes later, ^3 H-flunitrazepam is given intravenously to the mice and after a further 20 minutes, the mice are killed, their […] by scintillation counting. The ED50 value is determined from dose-response curves.

[2] = molecular target: benzodiazepine receptors; test: Displacement of 3H-flunitrazepam binding in vitro (rat forebrain membrane suspension); settings: 3H-flunitrazepam 1.0 nM, 0° C., 25 mM KH2PO4 pH 7.1, rat forebrain, 40-60 min

SMILES: CCc1noc(-c2ncn3c2CN(C)C(=O)c2ccccc2-3)n1 [3-[5-(3-ethyl-1,2,4-oxadiazole)-yl]-5,6-dihydro-5-methyl-6-oxo-4H-imidazo[1,5-a][1,4]benzodiazepine]
- Inhibition of 3H-flunitrazepam-binding in vivo ED50 [1]: 2.2 mg/kg
- Inhibition of 3H-flunitrazepam-binding in vitro IC50 [2]: 12 ng/mL

SMILES: CCc1noc(-c2ncn3c2CN(C)C(=O)c2cc(F)ccc2-3)n1 [5,6-dihydro-3-[5-(3-ethyl-1,2,4-oxadiazole)-yl]-8-fluoro-5-methyl-6-oxo-4H-imidazo[1,5-a][1,4]benzodiazepine]
- Inhibition of 3H-flunitrazepam-binding in vivo ED50 [1]: 4.5 mg/kg
- Inhibition of 3H-flunitrazepam-binding in vitro IC50 [2]: 3.5 ng/mL

SMILES: CCc1noc(-c2ncn3c2CN(C)C(=O)c2cc(Cl)ccc2-3)n1 [8-chloro-5,6-dihydro-3-[5-(3-ethyl-1,2,4-oxadiazole)-yl]-5-methyl-6-oxo-4H-imidazo[1,5-a][1,4]benzodiazepine]
- Inhibition of 3H-flunitrazepam-binding in vivo ED50 [1]: 5.9 mg/kg
- Inhibition of 3H-flunitrazepam-binding in vitro IC50 [2]: > 10 ng/mL

SMILES: CCOC(=O)c1ncn2c1CN(C)C(=O)c1ccccc1-2 [ethyl-5,6-dihydro-5-methyl-6-oxo-4H--imidazo[1,5-a][1,4]benzodiazepine-3-carboxylate, reference compound]
- Inhibition of 3H-flunitrazepam-binding in vivo ED50 [1]: > 30 mg/kg

SMILES: CCOC(=O)c1ncn2c1CN(C)C(=O)c1cc(Cl)ccc1-2 [ethyl-8-chloro-5,6-dihydro-5-methyl-6-oxo-4H--imidazo[1,5-a][1,4]benzodiazepine-3-carboxylate, reference compound]
- Inhibition of 3H-flunitrazepam-binding in vivo ED50 [1]: > 30 mg/kg
- Inhibition of 3H-flunitrazepam-binding in vitro IC50 [2]: 7.9 ng/mL
